Data set [1] relates to Aspergillus niger ATCC 16404. In words: Antifungal susceptibility study (1), broth microdilution MIC. The format is cell-based. The following applies: lowest concentration preventing any visible growth, read at 48 hours, 35° C., RPMI 1640 pH 7.0. Put shortly:
(§1)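 Broth microdilution was run at pH 7.0 with compounds diluted from DMSO solutions and mixed 1:1 with conidial inoculum. Spore suspensions were adjusted to OD530 0.09-0.11 for A. niger or 0.15-0.17 for F. oxysporum, then diluted 1:50. Plates were incubated at 35° C without agitation, and MIC was read at 48 hours as absence of visible growth.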

In data set [2] the test system is Fusarium oxysporum VKM F-140. Described as above. The format is cell-based. Conditions: lowest concentration preventing any visible growth, read at 48 hours, 35° C., RPMI 1640 pH 7.0. Put shortly: as §1
Data set [3] concerns Candida albicans ATCC 10231. In words: Antifungal susceptibility study (2), MIC50 by OD490 growth. The following applies: 50% growth inhibition from regression curve, M19 medium without NaCl, 30° C. Type of data set: cell-based. Here is the method:
The anti-fungal activity of several of the nystatin derivatives was further investigated. […] The anti-fungal activity of a number of the nystatin derivatives was therefore determined in a method which is designed to be more sensitive.
The test organism used for the further testing of polyene macrolide bioactivity was Candida albicans ATCC 10231, grown in 120 μl of standard M19 medium without NaCl (with an inoculum of 1000 cfu per well) and 30 μl of diluted polyene macrolide samples. The antibiotics were diluted in MeOH in series ensuring a spectrum of concentrations which yielded results ranging from complete growth inhibition to no inhibition of the test organism. The test organism cultures with antibiotic dilutions were incubated in 96-well microtiter plates at 30° C. without shaking, and growth was measured as OD490 after 12, 14 and 16 hours on a SpectraMax Plus microtiter plate reader. OD was plotted against antibiotic concentration, and MIC50 was estimated from the regression curve at 50% growth inhibition.

Data set [4] relates to mice (C57B1/6xDBA/2)F1 B6D2F1. Conditions: single injection into tail vein, probit analysis. Here is the method: Male mice of hybrids of first generation (C57B1/6xDBA/2)F1 B6D2F1, weight 20-22 g., received from the Central farm. “Kryukovo” of Russian Academies of Medical Science (RAMS) were used. Animals were maintained in a vivarium in plastic cages (with hardwood bedding in environmentally controlled conditions: 24±1° C., 12/12 hours light/dark cycle) on a standard diet of bricketed forages with easy access to drinking water (ad libitum). After a 2-week quarantine period, healthy animals were used in experimental work.
The solutions were prepared as follows: dry antibiotic substances (5 mg) were mixed with dry sodium deoxycholate (4.1 mg) in a sterile glass vial. 10 mL of phosphate buffer (NaH2PO4—1.59 g; Na2HPO4—0.96 g; H2O—to 100 mL) was added to the mix and the suspension was immediately subjected to vigorous shaking for 10 minutes until homogeneous suspensions were formed.
Preparations of amphotericin B and S44HP were also prepared in the same way.
The antibiotic preparations were singly injected into the mice's tail vein within 1-1.5 hours after the preparation of solutions. […] Each antibiotic was used in a range of doses resulting in 0% to 100% lethality and a minimum of 3 intermediate doses. Animals were randomized into groups, each containing 6 mice.

The test system of data set [5] is yeasts and filamentous fungi (moulds). In words: Antifungal susceptibility study (1), overall comparison across the test organisms. Type of data set: cell-based. The following applies: for anti-fungal activity compared with Amphotericin B and S44HP: Table 5 MICs; for antifungal activity, rank within the series: Tables 7 and 8. Here is the method: The organisms used for susceptibility testing were: Candida albicans ATCC 14053, Cryptococcus humicolus ATCC 9949, Aspergillus niger ATCC 16404 and Fusarium oxysporum VKM F-140 (=CMI, IMI 90473). Organisms were stored on potato dextrose agar […] 50% glycerol solution at -70° C. For short-term storage, stock cultures were stored on agar […] 4° C. The cultures of yeasts were sub-cultured onto Sabouraud dextrose (SAB) agar and incubated for 24 hours at 35° C. (Candida albicans) or for 48 hours at 25° C. (Cryptococcus humicolus) to obtain a freshly grown pure culture. The cultures of moulds were sub-cultured onto potato dextrose agar and incubated for 7 days at 35° C. […] (Fusarium oxysporum) to ensure maximum sporulation. Sterile 96-well flat-bottomed microtitration plates were used for testing. 100 μl of diluted inocula were dispensed into each microdilution well containing 100 μl of the double dilutions of compounds. Drug-free and yeast/mould-free controls were included. Microdilution trays were incubated at 35° C. (Candida albicans and moulds) or 25° C. (Cryptococcus humicolus) without agitation and observed for the presence or absence of visible growth. […] Minimal inhibitory concentrations (MICs) were read at 48 hours.

In brackets after ≈: the same amount, converted by molar mass. Several values for one entry are separate records, joined by “and”; a condition that tells them apart may be missing. Identical values can stand only once.

A word on the MIC50: it is the lowest concentration that inhibits either 50% of growth or 50% of the strains tested, depending on the study. The term LD50 denotes the dose expected to kill half of the subjects tested. For the molecule `C[C@@H]1[C@H](O)[C@@H](C)/C=C/C=C/C=C/C=C/C=C/C=C/C=C/[C@H](O[C@@H]2O[C@H](C)[C@@H](O)[C@H](N)[C@@H]2O)C[C@@H]2O[C@](O)(C[C@@H](O)C[C@@H](O)[C@H](O)CC[C@@H](O)C[C@@H](O)CC(=O)O[C@H]1C)C[C@H](O)[C@H]2C(=O)O` [Amphotericin B, reference compound], in data set [1], the “MIC Aspergillus niger ATCC 16404” value is 1 µg/mL (≈ 1.08 µM). Also, the “MIC Fusarium oxysporum VKM F-140” value in data set [2] amounted to 4 µg/mL (≈ 4.33 µM). Moreover, the MIC50 in data set [3] was 0.12 µg/mL (≈ 0.13 µM). Also, in data set [4], the LD50 is reported as 2.8 mg/kg and the MTD amounted to 2.01 mg/kg.
As to `CC1C=CC=CC=CC=CC=CC=CC=CC(OC2OC(C)C(O)C(N)C2O)CC2OC(O)(CC(O)C(O)CCC(O)CC(O)CC(O)CC(=O)OC(C)C(C)C1O)CC(O)C2C` (stereo not shown) [Compound 1], the “MIC Aspergillus niger ATCC 16404” value in data set [1] is 1 µg/mL and 2 µg/mL; in data set [1] (listed as Comp 1), 2 µg/mL (≈ 2.24 µM). Further, the “MIC Fusarium oxysporum VKM F-140” value in data set [2] turned out to be 2 µg/mL (≈ 2.24 µM). In data set [3], this molecule returned an MIC50 of 0.07 µg/mL (≈ 0.0783 µM). In data set [4], this molecule gave an LD50 of 15.4 mg/kg. Also, the MTD in data set [4] was determined as 7.8 mg/kg. Also, the “anti-fungal activity compared with Amphotericin B and S44HP” value in data set [5] was “comparable anti-fungal activity to Amphotericin B and S44HP”.
In the case of `CC1C=CC=CC=CC=CC=CC=CC=CC(OC2OC(C)C(O)C(N)C2O)CC2OC(O)(CC(O)C(O)CCC(O)CC(O)CC(O)CC(=O)OC(C)C(C)C1O)CC(O)C2C(=O)NCCCN(C)C` (stereo not shown) [Compound 11, S44HP DMAP Amide], the “MIC Aspergillus niger ATCC 16404” value in data set [1] stood at 2 µg/mL (≈ 1.98 µM). For the same molecule, the “MIC Fusarium oxysporum VKM F-140” value in data set [2] was 2 µg/mL (≈ 1.98 µM). The molecule further came in with an MIC50 in data set [3] of 0.12 µg/mL (≈ 0.119 µM). In data set [4], this molecule gave an LD50 of 16.4 mg/kg and an MTD of 11.9 mg/kg. Further, in data set [5], the “anti-fungal activity compared with Amphotericin B and S44HP” value is “comparable anti-fungal activity to Amphotericin B and S44HP”.
`CC1C=CC=CC=CC=CC=CC=CC=CC(OC2OC(C)C(O)C(N)C2O)CC2OC(O)(CC(O)C(O)CCC(O)CC(O)CC(O)CC(=O)OC(C)C(C)C1O)CC(O)C2C.NC(CCC(=O)O)C(=O)O` [Compound 29, Compound 1 L-glutamate]: in data set [1], the “MIC Aspergillus niger ATCC 16404” value stood at 2 µg/mL. For the same molecule, the “MIC Fusarium oxysporum VKM F-140” value in data set [2] was 2 µg/mL. In data set [4], this molecule had an LD50 of 17.8 mg/kg and an MTD of 11.0 mg/kg. The “antifungal activity, rank within the series” value in data set [5] is recorded as “most active salt of Compound 1”.
Turning to `CC1O[C@@H](O[C@H]2/C=C/C=C/C=C/C=C/C=C/C=C/C=C/[C@H](C)[C@@H](O)[C@@H](C)[C@H](C)OC(=O)C[C@H](O)C[C@H](O)C[C@H](O)CC[C@@H](O)[C@H](O)C[C@]3(O)C[C@H](O)[C@@H](C)[C@H](C2)O3)[C@H](O)C(NC(=O)[C@@H](N)CCCCN)[C@@H]1O` (stereo partly drawn) [Compound 51, N-L-Lysyl-Compound 1], the “MIC Aspergillus niger ATCC 16404” value in data set [1] is 1 µg/mL (≈ 0.978 µM). The “MIC Fusarium oxysporum VKM F-140” value in data set [2] stood at 2 µg/mL (≈ 1.96 µM). Also, in data set [4], the LD50 was determined as 5.3 mg/kg and the MTD is reported as 4.48 mg/kg. Also, the “antifungal activity, rank within the series” value in data set [5] is given as “most active derivative in this series with antifungal activity slightly higher than the parent antibiotic”.

For the origin of these results see patent US8415312B2, “Compound which is a nystatin derivative” (Biosergen AS, priority 2007, dated 2013).
